Source: patent publication US11071735B2, “Treatment of inflammatory conditions and autoimmune diseases with glucose uptake inhibitors” (Kadmon Corporation, LLC, priority 2017, dated 2021)

What was measured:
Type in all cases: cell-based
[1] = biological target: T1, GLUT1 (Homo sapiens, UniProt P11166); experiment: glycolysis assay in DLD1 WT cells (rely on GLUT1); settings: DLD1-WT cells; 10 μM oligomycin, one hour
T1 construct: endogenous in cells; host or cells: DLD1 WT cancer cells
T1 sequence (P11166 1-492): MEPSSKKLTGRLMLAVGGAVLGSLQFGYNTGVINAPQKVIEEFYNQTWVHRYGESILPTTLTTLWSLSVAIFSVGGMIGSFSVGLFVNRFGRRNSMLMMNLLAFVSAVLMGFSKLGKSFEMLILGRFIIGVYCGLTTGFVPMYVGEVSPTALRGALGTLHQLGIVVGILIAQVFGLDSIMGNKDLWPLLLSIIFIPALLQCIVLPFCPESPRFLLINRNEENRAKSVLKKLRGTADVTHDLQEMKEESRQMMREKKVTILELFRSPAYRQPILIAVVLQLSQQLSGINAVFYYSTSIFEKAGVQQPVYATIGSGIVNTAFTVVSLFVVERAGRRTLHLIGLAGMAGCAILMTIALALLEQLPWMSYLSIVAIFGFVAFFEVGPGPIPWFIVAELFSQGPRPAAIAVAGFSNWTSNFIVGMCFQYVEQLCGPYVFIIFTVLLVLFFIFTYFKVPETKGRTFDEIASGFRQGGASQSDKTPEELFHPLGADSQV
Protocol: (§1) Cells were treated with GLUT inhibitors plus oligomycin and subsequently ATP levels were determined using Cell Titer Glo. […] FIG. 1B reports the IC50 of glycolysis inhibition for selected compounds.
(§2) Accordingly, we have investigated the use of inhibitors of GLUT transporters against activated pro-inflammatory immune cells, including but not limited to activated human CD4+ T cells. In order to understand what GLUT transporters are required to sustain glycolysis in activated T cells, we first utilized the syngeneic cancer cell lines DLD1 WT and DLD GLUT1−/− that rely on GLUT1 and GLUT3 expression, respectively, for glucose transport. Within this system, we have identified small molecules that simultaneously have the property of inhibiting both GLUT1 and GLUT3 mediated glucose transport. In addition, we have confirmed the GLUT1-selective nature of a published small molecule inhibitor of GLUT1 (Chem Med Chem. 2016 Oct. 19; 11(20):2261-2271).
(§3) Determination of glucose uptake/GLUT activity (glycolysis assay): HT1080 cells, DLD1 cells (WT and GLUT1−/−) and human CD4+ T cells were plated in 96-well plates. Cells were exposed to the combination of 10 μM Oligomycin (to block mitochondrial-derived ATP) and the glucose uptake inhibitors disclosed herein for one-hour, after which glycolytically-derived ATP was measured with the Cell Titer-Glo assay kit (Promega). Dose-response curves of the glucose uptake inhibitors disclosed herein were used to determine the IC50 for GLUT activity.

[2] = system: GLUT; experiment: glycolysis assay (oligomycin + Cell Titer-Glo ATP readout) in HT1080 cells; settings: 10 μM oligomycin, one hour, glycolytically-derived ATP
Description: The combination of inhibitors of both oxidative phosphorylation and glycolysis synergistically suppress cellular ATP levels. Therefore, our assay utilizes the combination of our glucose uptake inhibitors with oligomycin, a well-characterized inhibitor of ATP synthase. Because oligomycin inhibits ATP derived from oxidative phosphorylation, any remaining ATP production is derived from glycolysis. By reading out cellular ATP levels using the Promega
Titer Glo kit, we can assess the extent of glycolysis inhibition by our glucose uptake inhibitors. Using this experimental set-up in HT1080 cancer cells, we determined the IC50 of glycolysis inhibition for the compounds.
as §3

[3] = biological target: T2, GLUT3 (Homo sapiens, UniProt P11169); experiment: glycolysis assay in DLD1 GLUT1−/− cells (rely on GLUT3); settings: DLD1-KO (GLUT1−/−) cells; 10 μM oligomycin, one hour
T2 construct: endogenous in cells; host or cells: DLD1 GLUT1−/− (knock-out) cancer cells
T2 sequence (P11169 1-496): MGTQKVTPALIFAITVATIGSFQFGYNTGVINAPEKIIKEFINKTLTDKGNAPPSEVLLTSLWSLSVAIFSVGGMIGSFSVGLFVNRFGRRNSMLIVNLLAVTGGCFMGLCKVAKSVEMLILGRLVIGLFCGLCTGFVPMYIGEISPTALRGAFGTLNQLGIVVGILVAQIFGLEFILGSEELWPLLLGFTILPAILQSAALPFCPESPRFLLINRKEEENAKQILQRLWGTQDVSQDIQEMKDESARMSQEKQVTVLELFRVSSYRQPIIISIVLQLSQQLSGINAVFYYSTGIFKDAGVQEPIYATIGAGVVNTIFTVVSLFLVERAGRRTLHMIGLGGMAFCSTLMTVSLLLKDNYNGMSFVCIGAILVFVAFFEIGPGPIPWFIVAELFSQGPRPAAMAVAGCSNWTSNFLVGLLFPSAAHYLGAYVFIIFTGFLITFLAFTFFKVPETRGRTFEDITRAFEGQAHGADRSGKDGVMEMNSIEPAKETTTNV
Protocol: as §1, §2, §3

SMILES	IC50 [1] [nM]	IC50 [2] [nM]	IC50 [3] [nM]
COc1ccc2nc(-c3cccc(OCC(=O)NC(CF)CF)c3)nc(Nc3ccc(-c4cn[nH]c4)cc3)c2c1 [Ex. 23, 2-(3-(4-((4-(1H-pyrazol-4-yl)phenyl)amino)-6-methoxyquinazolin-2-yl)phenoxy)-N-(1,3-difluoropropan-2-yl)acetamide]	463	258	110
CCOc1ccc2nc(-c3cccc(OCC(=O)NC(C)C)c3)nc(Nc3ccc(-c4cn[nH]c4)cc3F)c2c1 [Ex. 21, 2-(3-(6-ethoxy-4-((2-fluoro-4-(1H-pyrazol-4-yl)phenyl)amino)quinazolin-2-yl)phenoxy)-N-isopropylacetamide]	786	408	248
CC(C)NC(=O)COc1cccc(-c2nc(Nc3ccc(-c4cn[nH]c4)cc3)c3ccc(F)cc3n2)c1 [Ex. 34, 2-(3-(4-((4-(1H-Pyrazol-4-yl)phenyl)amino)-7-fluoroquinazolin-2-yl)phenoxy)-N-isopropylacetamide]	797	418	197
COCCOc1ccc2nc(-c3cccc(OCC(=O)NC(C)(C)C)c3)nc(Nc3ccc(-c4cn[nH]c4)cc3)c2c1 [Ex. 39, 2-(3-(4-((4-(1H-Pyrazol-4-yl)phenyl)amino)-6-(2-methoxyethoxy)quinazolin-2-yl)phenoxy)-N-(tert-butyl)acetamide]	40.6	34.1	34.2
CC(C)(C)NC(=O)COc1cccc(-c2nc(Nc3ccc(-c4cn[nH]c4)cc3)c3cc(F)ccc3n2)c1 [Ex. 29, 2-(3-(4-((4-(1H-Pyrazol-4-yl)phenyl)amino)-6-fluoroquinazolin-2-yl)phenoxy)-N-(tert-butyl)acetamide]	124	123	142
COc1ccc2nc(-c3cccc(OCC(=O)NCC(F)(F)F)c3)nc(Nc3ccc(-c4cn[nH]c4)cc3)c2c1 [Ex. 25, 2-(3-(4-((4-(1H-pyrazol-4-yl)phenyl)amino)-6-methoxyquinazolin-2-yl)phenoxy)-N-(2,2,2-trifluoroethyl)acetamide]	1070	433	68.4
CCOc1ccc2nc(-c3cccc(OCC(=O)NCC(F)(F)F)c3)nc(Nc3ccc(-c4cn[nH]c4)cc3)c2c1 [Ex. 24, 2-(3-(4-((4-(1H-pyrazol-4-yl)phenyl)amino)-6-ethoxyquinazolin-2-yl)phenoxy)-N-(2,2,2-trifluoroethyl)acetamide]	801	454	86
CCCOc1ccc2nc(-c3cccc(OCC(=O)NC(C)(C)C)c3)nc(Nc3ccc(-c4cn[nH]c4)cc3)c2c1 [Ex. 37, 2-(3-(4-((4-(1H-Pyrazol-4-yl)phenyl)amino)-6-propoxyquinazolin-2-yl)phenoxy)-N-(tert-butyl)acetamide]	89.3	128	158
CCCNC(=O)COc1cccc(-c2nc(Nc3ccc(-c4cn[nH]c4)cc3)c3cc(OC)ccc3n2)c1 [Ex. 12, 2-(3-(4-((4-(1H-pyrazol-4-yl)phenyl)amino)-6-methoxyquinazolin-2-yl)phenoxy)-N-propylacetamide]	598	248	166

Further lines, results first:

IC50 [1] [nM]	IC50 [2] [nM]	IC50 [3] [nM]	SMILES
71.6	81.5	110	CC[C@H](C)NC(=O)COc1cccc(-c2nc(Nc3ccc(-c4cn[nH]c4)cc3)c3cc(OC)ccc3n2)c1 [Ex. 48, (S)-2-(3-(4-((4-(1H-pyrazol-4-yl)phenyl)amino)-6-methoxyquinazolin-2-yl)phenoxy)-N-(sec-butyl)acetamide]
81	92	104	CCOc1ccc2nc(-c3cccc(OCC(=O)NC4CCCC4)c3)nc(Nc3ccc(-c4cn[nH]c4)cc3)c2c1 [Ex. 5, 2-(3-(4-((4-(1H-pyrazol-4-yl)phenyl)amino)-6-ethoxyquinazolin-2-yl)phenoxy)-N-cyclopentylacetamide]
98	128	233	CCOc1ccc2nc(-c3cccc(OCC(=O)NC(CC)CC)c3)nc(Nc3ccc(-c4cn[nH]c4)cc3)c2c1 [Ex. 7, 2-(3-(4-((4-(1H-pyrazol-4-yl)phenyl)amino)-6-ethoxyquinazolin-2-yl)phenoxy)-N-(pentan-3-yl)acetamide]
106	113	125	CC[C@@H](C)NC(=O)COc1cccc(-c2nc(Nc3ccc(-c4cn[nH]c4)cc3)c3cc(F)ccc3n2)c1 [Ex. 51, (R)-2-(3-(4-((4-(1H-pyrazol-4-yl)phenyl)amino)-6-fluoroquinazolin-2-yl)phenoxy)-N-(sec-butyl)acetamide]
94.9	111	133	CC[C@H](C)NC(=O)COc1cccc(-c2nc(Nc3ccc(-c4cn[nH]c4)cc3)c3cc(F)ccc3n2)c1 [Ex. 47, (S)-2-(3-(4-((4-(1H-pyrazol-4-yl)phenyl)amino)-6-fluoroquinazolin-2-yl)phenoxy)-N-(sec-butyl)acetamide]
86.9	54	38.9	COc1ccc2nc(-c3cccc(OCC(=O)NC(C)(C)C)c3)nc(Nc3ccc(-c4cn[nH]c4)cc3)c2c1 [Ex. 13, 2-(3-(4-((4-(1H-pyrazol-4-yl)phenyl)amino)-6-methoxyquinazolin-2-yl)phenoxy)-N-(tert-butyl)acetamide]
94	141	120	CCOc1ccc2nc(-c3cccc(OCC(=O)NC4CCC4)c3)nc(Nc3ccc(-c4cn[nH]c4)cc3)c2c1 [Ex. 6, 2-(3-(4-((4-(1H-pyrazol-4-yl)phenyl)amino)-6-ethoxyquinazolin-2-yl)phenoxy)-N-cyclobutylacetamide]
30.7	31.2	41.6	CCC(C)NC(=O)COc1cccc(-c2nc(Nc3ccc(-c4cn[nH]c4)cc3)c3cc(OCCOC)ccc3n2)c1 (stereo not drawn) [Ex. 42, 2-(3-(4-((4-(1H-pyrazol-4-yl)phenyl)amino)-6-(2-methoxyethoxy)quinazolin-2-yl)phenoxy)-N-(sec-butyl)acetamide]
105	112	66.8	CCC(C)NC(=O)COc1cccc(-c2nc(Nc3ccc(-c4cn[nH]c4)cc3)c3cc(OC)ccc3n2)c1 (stereo not drawn) [Ex. 22, 2-(3-(4-((4-(1H-pyrazol-4-yl)phenyl)amino)-6-methoxyquinazolin-2-yl)phenoxy)-N-(sec-butyl)acetamide]
34.8	37.1	87	CC[C@H](C)NC(=O)COc1cccc(-c2nc(Nc3ccc(-c4cn[nH]c4)cc3)c3cc(OCCF)ccc3n2)c1 [Ex. 46, (S)-2-(3-(4-((4-(1H-pyrazol-4-yl)phenyl)amino)-6-(2-fluoroethoxy)quinazolin-2-yl)phenoxy)-N-(sec-butyl)acetamide]
91.2	123	159	CCC(C)NC(=O)COc1cccc(-c2nc(Nc3ccc(-c4cn[nH]c4)cc3)c3cc(F)ccc3n2)c1 (stereo not drawn) [Ex. 44, 2-(3-(4-((4-(1H-pyrazol-4-yl)phenyl)amino)-6-fluoroquinazolin-2-yl)phenoxy)-N-(sec-butyl)acetamide]
